≈ marks a conversion by molar mass, not a printed value.
Assays:
[1] = tested on: Enterobacter faecalis 29212; assay: In vitro Antibacterial Activity; format: cell-based
[2] = tested on: Candida albicans; assay: In vitro antifungal activity vs. yeasts (MIC/MFC); format: cell-based; settings: Candida albicans (n = 8)
[3] = tested on: yeasts; assay: MFC range over yeasts tested; format: cell-based, Candida and Malassezia strains; settings: Table 13 strains
Source text: The fungal isolates tested in this study to evaluate the antifungal activity of (Z)-14-([…]-11,13-diynoic acid, 14-([…]-11,13-diynoic acid, (Z)-14-([…]-11,13-diynoic acid, potassium salt and comparators are clinical isolates collected from patients and deposited at the culture collection of the Center for Medical Mycology. Tested isolates included: Candida albicans, C. glabrata, C. guilliermondii, C. krusei, C. lipolytica, C. lusitaniae, C. parapsilosis, C. tropicalis and Malassezia furfur. Dermatophyte strains included Trichophyton rubrum, T. mentagrophytes, T. tonsurans, T. terrestre, Epidermophyton floccosum, Microsporum canis, M. cookie, M. gallinae, M. gypseum, and M. vanbreuseghemii. […] The plates were then streaked with an inoculating loop to remove the cells from the drug source.

[4] = Solubility in water (incremental addition, 50° C.); format: physicochemical; settings: 10 mg, water added up to 50 μl
Protocol: Solubility in water was determined. This was carried out by transferring 10 mg of the material into 1.5 ml HPLC vials. Then 10 μl (1 vol) of water was added. The sample was then isothermally held at 50° C. with stirring for 30 mins. The process was continued up to 50 μl by 10 μl increments with heating to 50° C. in between.

[5] = tested on: all Candida strains; assay: MIC range over all Candida strains tested; format: cell-based; settings: Table 13 strains
[6] = tested on: T. terrestre; assay: In vitro antifungal activity vs. dermatophytes (MIC/MFC); format: cell-based; settings: T. terrestre (n = 1)
[7] = tested on: Epidermophyton floccosum; assay: as above; format: cell-based; settings: Epidermophyton floccosum (n = 15)
[8] = tested on: C. parapsilosis; assay: In vitro antifungal activity vs. yeasts (MIC/MFC); format: cell-based; settings: Lodderomyces parapsilosis, C. parapsilosis (n = 2)
[9] = tested on: M. gallinae; assay: In vitro antifungal activity vs. dermatophytes (MIC/MFC); format: cell-based; settings: M. gallinae (n = 1)
[10] = tested on: Cytochrome P450 3A; assay: Inhibition of cytochrome P450 enzymes; format: in vitro ADME; settings: 10 μM
Protocol: (§1) Peak areas corresponding to the metabolite of each substrate were recorded. The percent of control activity was then calculated by comparing the peak area obtained in the presence of the diyne potassium salt and in the absence.

[11] = target: Cytochrome P450 2C8 (Homo sapiens, UniProt P10632); assay: Inhibition of cytochrome P450 enzymes; format: in vitro ADME; settings: substrate paclitaxel
Cytochrome P450 2C8, sequence (P10632 whole entry): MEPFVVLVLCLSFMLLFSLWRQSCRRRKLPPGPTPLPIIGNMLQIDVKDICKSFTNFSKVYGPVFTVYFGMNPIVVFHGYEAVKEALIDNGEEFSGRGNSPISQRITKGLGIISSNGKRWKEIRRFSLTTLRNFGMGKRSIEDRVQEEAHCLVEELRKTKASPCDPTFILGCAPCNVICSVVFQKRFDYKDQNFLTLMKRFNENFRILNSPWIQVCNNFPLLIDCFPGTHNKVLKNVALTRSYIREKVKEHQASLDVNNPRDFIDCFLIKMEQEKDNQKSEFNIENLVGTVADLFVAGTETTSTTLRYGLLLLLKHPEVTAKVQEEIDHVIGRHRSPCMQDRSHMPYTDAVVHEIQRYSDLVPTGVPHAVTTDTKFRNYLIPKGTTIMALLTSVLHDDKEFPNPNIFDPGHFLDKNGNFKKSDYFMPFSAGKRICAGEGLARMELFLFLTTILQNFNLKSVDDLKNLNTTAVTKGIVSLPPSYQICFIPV
Protocol: as §1

[12] = target: Cytochrome P450 2C9 (Homo sapiens, UniProt P11712); assay: Inhibition of cytochrome P450 enzymes; format: in vitro ADME; settings: substrate diclofenac
Cytochrome P450 2C9, sequence (P11712 whole entry): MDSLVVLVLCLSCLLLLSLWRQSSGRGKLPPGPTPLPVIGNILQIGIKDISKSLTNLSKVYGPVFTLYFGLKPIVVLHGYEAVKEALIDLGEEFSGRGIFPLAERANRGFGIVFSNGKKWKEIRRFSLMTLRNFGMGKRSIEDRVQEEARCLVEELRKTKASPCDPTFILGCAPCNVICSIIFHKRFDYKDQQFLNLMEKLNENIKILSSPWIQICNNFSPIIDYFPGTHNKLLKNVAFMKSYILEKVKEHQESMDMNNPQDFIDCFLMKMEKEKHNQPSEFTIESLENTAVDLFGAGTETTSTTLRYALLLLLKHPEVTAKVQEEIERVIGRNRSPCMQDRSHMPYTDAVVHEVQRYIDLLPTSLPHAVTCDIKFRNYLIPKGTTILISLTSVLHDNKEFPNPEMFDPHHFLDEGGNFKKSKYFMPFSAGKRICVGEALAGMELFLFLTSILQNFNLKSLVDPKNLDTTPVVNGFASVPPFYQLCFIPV
Protocol: as §1

[13] = target: Cytochrome P450 2B6 (Homo sapiens, UniProt P20813); assay: Inhibition of cytochrome P450 enzymes; format: in vitro ADME; settings: substrate bupropion
Cytochrome P450 2B6, sequence (P20813 whole entry): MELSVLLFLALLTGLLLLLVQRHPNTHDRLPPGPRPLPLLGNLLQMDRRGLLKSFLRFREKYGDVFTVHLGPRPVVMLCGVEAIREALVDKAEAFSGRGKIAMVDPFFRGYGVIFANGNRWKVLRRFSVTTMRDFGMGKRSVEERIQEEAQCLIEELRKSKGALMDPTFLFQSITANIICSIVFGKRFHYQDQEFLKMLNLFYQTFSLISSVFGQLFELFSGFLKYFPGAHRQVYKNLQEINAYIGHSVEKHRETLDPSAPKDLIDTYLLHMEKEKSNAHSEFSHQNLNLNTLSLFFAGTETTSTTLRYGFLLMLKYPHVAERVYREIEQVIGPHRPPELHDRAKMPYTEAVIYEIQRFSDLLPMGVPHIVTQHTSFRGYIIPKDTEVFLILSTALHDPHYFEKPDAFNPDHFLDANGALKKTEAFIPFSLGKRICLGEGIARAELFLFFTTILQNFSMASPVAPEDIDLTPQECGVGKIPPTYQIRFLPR
Protocol: as §1

[14] = tested on: CYP3A; assay: Inhibition of cytochrome P450 enzymes; format: in vitro ADME; settings: human
Protocol: as §1

[15] = tested on: CYP1A; assay: Inhibition of cytochrome P450 enzymes; format: in vitro ADME; settings: human, probe ethoxyresorufin; substrate ethoxyresorufin
Protocol: as §1

[16] = target: Cytochrome P450 2D6 (Homo sapiens, UniProt P10635); assay: Inhibition of cytochrome P450 enzymes; format: in vitro ADME; settings: substrate dextromethorphan
Cytochrome P450 2D6, sequence (P10635 whole entry): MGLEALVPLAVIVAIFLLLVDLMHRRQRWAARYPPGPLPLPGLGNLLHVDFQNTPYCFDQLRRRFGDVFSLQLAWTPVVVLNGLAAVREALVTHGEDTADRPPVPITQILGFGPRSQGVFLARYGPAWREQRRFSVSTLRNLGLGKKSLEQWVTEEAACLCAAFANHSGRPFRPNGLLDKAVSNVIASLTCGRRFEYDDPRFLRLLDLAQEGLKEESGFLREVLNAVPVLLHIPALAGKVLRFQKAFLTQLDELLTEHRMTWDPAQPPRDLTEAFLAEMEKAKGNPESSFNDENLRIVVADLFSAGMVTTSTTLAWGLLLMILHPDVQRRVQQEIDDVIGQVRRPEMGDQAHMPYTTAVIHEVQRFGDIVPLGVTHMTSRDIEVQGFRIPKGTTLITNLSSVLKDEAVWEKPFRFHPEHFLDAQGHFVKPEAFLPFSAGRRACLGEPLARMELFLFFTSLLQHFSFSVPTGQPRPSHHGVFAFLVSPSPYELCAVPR
Protocol: as §1

[17] = tested on: Cytochrome P450 1A; assay: Inhibition of cytochrome P450 enzymes; format: in vitro ADME; settings: substrate ethoxyresorufin; 10 μM
Protocol: as §1

[18] = Aqueous solubility (equilibrated 25° C., 24 hours, HPLC); format: physicochemical; settings: water, thermodynamic from solid
Protocol: The potassium salt was furthermore submitted to a solubility determination. Aqueous solubility was determined by suspending sufficient compound in water to give a maximum final concentration of ≧100 mg.m1-1 of the parent free-form of the compound. The suspension was equilibrated at 25° C. for 24 hours then the pH was measured. The suspension was then filtered through a glass fibre C filter into a 96 well plate. The filtrate was then diluted by a factor of 101. Quantification was by HPLC with reference to a standard solution of approximately 0.1 mg.ml-1. in DMSO. Different volumes of the standard, diluted and undiluted sample solutions were injected. The solubility was calculated using the peak areas determined by integration of the peak found at the same retention time as the principal peak in the standard injection. Analysis was performed on an Agilent HP1100 series system equipped with a diode array detector and using ChemStation software vB.02.01-SR1.

[19] = tested on: OLE1; assay: OLE1 expression by real time PCR; format: cell-based, S. cerevisiae
Protocol: The expression of OLE1 was determined by real time PCR 10, 60, 120 and 240 min after compound addition (Knechtle, P. and Greve, K., 2009). OLE1 transcript levels were calibrated to the expression of the tubulin gene (TUB1) and normalized to the OLE1 expression at 10 min without compound addition (FIG. 17(a)).
The expression of the OLE1 gene was determined by real time PCR 10, 60, 120 and 240 min for the conditions a.-e., as indicated in Table 3 above. OLE1 transcript levels were calibrated to the expression of the tubulin gene (TUB1) and normalized to the OLE1 expression at 10 min without compound addition. See FIG. 17a showing time dependent expressions of OLE1 in response to compound IV″. Conditions a.-e. are listed in Table 3 above, numbers indicate time intervals in minutes. Expressions of OLE1 are given as multiples of the expression at 10 min, condition a. […] 10 μg/ml oleic acid compensated for the OLE1 expression increase caused by 1 μg/ml compound IV alone. Compound IV″ dependent up-regulation of OLE1 expression thus confirms that compound IV″ is acting as an inhibitor of the Ole1 protein. The antagonistic effect of oleic acid found in the susceptibility assays, is reflected mechanistically in this experiment by a down-regulation of the target Ole1 protein through oleic acid.

O=C(O)CCCCCCC/C=C\C#CC#Cc1ccco1 [Compound III″]
MIC90 [1]: 12.5 µg/mL (≈ 44 µM) | MFC [2]: < 0.06 ng/mL | MIC ([2]; 90% inhibition endpoint): < 0.06 ng/mL | MFC range against yeasts [3]: <0.06 to 32000 ng/mL | solubility in water [4]: still did not dissolve | MIC range for all Candida strains [5]: <0.06 to 4000 ng/mL | MIC ([6]; 96 h, 35° C., 4 days): < 0.06 ng/mL | MFC [6]: 16 µg/mL (≈ 56.3 µM) | MIC90/MIC range 48 h ([6]; 48 h): <0.06 ng/mL | MIC ([7]; 96 h, 35° C., 4 days): < 0.06 ng/mL | MFC [7]: 0.015 µg/mL (≈ 0.0528 µM) | MIC90/MIC range 48 h ([7]; MIC90, 48 h): <0.06 ng/mL | MFC [8]: 32 µg/mL (≈ 113 µM) | MIC ([8]; 90% inhibition endpoint): 4 µg/mL (≈ 14.1 µM) | MIC ([9]; 96 h, 35° C., 4 days): < 0.06 ng/mL | MFC [9]: 4 µg/mL (≈ 14.1 µM) | MIC90/MIC range 48 h ([9]; 48 h): <0.06 ng/mL

O=C([O-])CCCCCCC/C=C\C#CC#Cc1ccco1.[K+] [Compound IV″, potassium (Z)-14-(furan-2-yl)tetradeca-9-en-11,13-diynoate]
% control at 10 μM ([10]; substrate midazolam): 85% | % control at 10 μM ([10]; substrate testosterone): 90% | IC50 [11]: > 100 µM | % control at 10 μM ([11]; 10 μM): 84% | IC50 [12]: 18 µM | % control at 10 μM ([12]; 10 μM): 74% | IC50 [13]: 24 µM | % control at 10 μM ([13]; 10 μM): 82% | IC50 ([14]; probe midazolam, substrate midazolam): 45 µM | IC50 ([14]; probe testosterone, substrate testosterone): 57 µM | IC50 [15]: 59 µM | IC50 [16]: > 100 µM | % control at 10 μM ([16]; 10 μM): 88% | % control at 10 μM [17]: 92% | solubility at 24 h [18]: > 96.5 mg/mL | increase of the expression level of OLE1 ([19]; 1 μg/ml, 10-240 min): 3-5 fold | increase of the expression level of OLE1 ([19]; 1 μg/ml, at 120 min): 4.9 fold | increase of the expression level of OLE1 ([19]; 10 μg/ml, 10-240 min): 7-19 fold | increase of the expression level of OLE1 ([19]; 10 μg/ml, at 120 min): 18.7 fold

Source: patent US8722910B2, “Diyne compositions” (Evolva AG, priority 2009, dated 2014)
